Experimental data reported in patent publication US20020039567A1, “Methods of treating bone or cartilage conditions by the administration of creatine” (priority 1998, published 2002).

Legend:
[1] = test system: osteoblasts (monolayer culture); test: Mineralization (von Kossa, image analysis), monolayer osteoblast cell culture; assay type: cell-based, rat; details: for mineralization (FIG. 3): no significant difference between groups
Procedure: This isolation technique is based on the ability of osteoblasts to migrate from bone onto a substratum. Parietal and frontal calvariae (4 per animal) were aseptically explanted from 6 day-old IcoIbm rats. The calvariae were placed in Tyrode's balanced salt solution, calcium and magnesium free (TESS). The periosteum was enzymatically removed with 0.05% trypsin and 0.02% collagenase A (0.76 U/mg) dissolved in TBSS (40 calvaria/20 ml). The calvariae were shaken for 70 minutes in a waterbath at 37° C. They were washed with TESS and then transferred to 60 mm culture dishes (40 calvariae/dish) containing 5 ml of 0.02% collagenase A (0.76 U/mg) in culture medium BGJb Fitton-Jackson modification and placed in the incubator for 4 hours. The calvariae were then washed with culture medium B supplemented with 10% foetal calf serum (FCS). The calvariae were transferred into 60 mm culture dishes (4 frontal and 4 parietal/dish). The growth medium supplemented with 10% FCS and 50 μg/ml ascorbate was completely changed every 48 hours. The culture was kept for 3 weeks. After 3 weeks the migrated cells were harvested. The dish was washed with TESS, and 5 ml of TESS containing 0.05% trypsin and 0.02% collagenase A (0.76 U/mg) was added. After 1 hour in the incubator, the dish was washed with culture medium BGJb supplemented with 10% FCS. The dishes containing the calvariae and cells were rinsed with serum containing media BGJb. The cells obtained were filtered through a 40 μm nylon mesh to remove bone debris and cell aggregates. The suspended cells were centrifuged at 600 g for 5 minutes. The cell pellet was resuspended in serum containing medium BGJb and centrifuged. The viability of the resuspended cells was examined by the dye exclusion of 0.4% trypan blue, and the cells were counted in a haeinocytometer. The inoculation densities were 2·10^5/10 cm^2 for monolayer and 2·10^5/30 μl for micromasses. The micromass cultures were kept for 1 hour in the incubator before 2 ml growth medium was added. All the cultures were kept at 37° C. in a humidified atmosphere of 5% CO2, 95% air. All culture media were supplemented with 50 μg/ml ascorbate. To analyze the collagen types, 60 μg/ml beta-aminopropionitrile (beta-APN) was added to the culture medium. During cell isolation and inoculation, no ascorbate was used to increase plating efficiency. No antibiotics and no beta-glycerophosphate were added. The media were completely changed every 48 hours (60 mm culture dish 5 ml; 35 mm culture dish 2 ml). The most specific method for detecting calcified matrices is the von Kossa reaction. Silver staining indicates the presence of calcium phosphate aggregated with certain organic acids. Structural details are completely obscured by the dark precipitate. Calcified tissue components are darkened in various shades from light brown to deep black, irrespective of their mineral content. [table] In the further experiments to quantify the calcification by image analysis of a center area (123 mm^2) of the culture dish, only the creatine groups were compared to the control groups, with the GPA-treated cells not further evaluated.

cultured chondrocytes = details: cited from earlier work
[2] = test system: osteoblasts (micromass culture); test: Mitochondrial activity (MTT conversion), micromass osteoblast cell culture; assay type: cell-based, rat; details: for MTT reaction: 2 weeks vs 1 week
Procedure: This isolation technique is based on the ability of osteoblasts to migrate from bone onto a substratum. Parietal and frontal calvariae (4 per animal) were aseptically explanted from 6 day-old IcoIbm rats. The calvariae were placed in Tyrode's balanced salt solution, calcium and magnesium free (TESS). The periosteum was enzymatically removed with 0.05% trypsin and 0.02% collagenase A (0.76 U/mg) dissolved in TBSS (40 calvaria/20 ml). The calvariae were shaken for 70 minutes in a waterbath at 37° C. They were washed with TESS and then transferred to 60 mm culture dishes (40 calvariae/dish) containing 5 ml of 0.02% collagenase A (0.76 U/mg) in culture medium BGJb Fitton-Jackson modification and placed in the incubator for 4 hours. The calvariae were then washed with culture medium B supplemented with 10% foetal calf serum (FCS). The calvariae were transferred into 60 mm culture dishes (4 frontal and 4 parietal/dish). The growth medium supplemented with 10% FCS and 50 μg/ml ascorbate was completely changed every 48 hours. The culture was kept for 3 weeks.
After 3 weeks the migrated cells were harvested. The dish was washed with TESS, and 5 ml of TESS containing 0.05% trypsin and 0.02% collagenase A (0.76 U/mg) was added. After 1 hour in the incubator, the dish was washed with culture medium BGJb supplemented with 10% FCS. The dishes containing the calvariae and cells were rinsed with serum containing media BGJb. […] The viability of the resuspended cells was examined by the dye exclusion of 0.4% trypan blue, and the cells were counted in a haeinocytometer. […]
Originally, Mosmann, 1983 described the general principle involved in the detection of cell growth/cell death as indicated by the conversion of the tetrazolium salt (MTT) to the colored formazan by mitochondrial dehydrogenases. The concentration of this can then be measured spectrophotoinetrically. […]
6. The absorbance of the supernatant (3 aliquots/dish) was read at 550 nm versus DMSO.
If the absorbance was higher than 1, the samples were diluted with DMSO.

Row | Structure (SMILES) | calcification pattern ([1]; 3 weeks, GPA groups, mineralization not limited to the nodules) | synthesis of pro-a type II and type X collagen (cultured chondrocytes) | mineralization (FIG. 3) ([1]; 10 mM creatine vs control, 3 weeks) | calcified area (FIG. 3) ([1]; 20 mM creatine vs control, 2 weeks, p<0.02, center area 123 mm^2) | mineralization (FIG. 3) ([1]; 20 mM creatine, 3 weeks, compared with 10 mM) | mineralization, mean values ([1]; creatine groups vs control, after 2 and 3 weeks) | MTT reaction ([2]; 10 mM creatine, p<0.02) | MTT reaction ([2]; 20 mM creatine, p<0.006) | MTT conversion ([2]; 20 mM creatine, 3 weeks vs 2 weeks, p<0.015)
1 | N=C(N)NCCC(=O)O [GPA, beta-guanidinopropionic acid] | different from the control and the creatine groups | interferes with the synthesis | – | – | – | – | – | – | –
2 | CN(CC(=O)O)C(=N)N [creatine] | – | – | more mineralization than the control | significantly higher | less effective | Mean values were higher | significantly higher MTT reaction | significantly higher MTT reaction | significantly lower MTT conversion
